This note sets out measurements from patent publication US12108761B2, “Mesostigmata mite control agent” (MEIJI SEIKA PHARMA CO., LTD., priority 2017, dated 2024).

Holding throughout (assay type): in vivo
For assay [1], the system named is red mites (Dermanyssus gallinae). Description: Test Example 4: controlling effect on red mites, Pasteur pipette treated with acetone solution. The note with it: 24 hours after treatment, unfed adult red mites; for pest or weed control at 5000 ppm: Dermanyssus gallinae, read-out: Ratio of dead and affected mites; for Ratio of dead and affected mites: 5000 ppm. The text has this: The tip of a Pasteur pipette was sealed with Parafilm, and an acetone solution (liquid agent) of each of the samples shown in Table 5 below diluted to a predetermined concentration was poured into the pipette through an upper portion thereof. One minute later, the Parafilm at the tip was detached, and the liquid agent was discharged. After the pipette was air dried, absorbent cotton was inserted to an upper end of the pipette, and 20 unfed adult red mites (Dermanyssus gallinae) were released into the pipette. After the tip was sealed with Hemato-Seal, the pipette was stored in the dark in an incubator at a temperature of 25 to 28° C. and a humidity of 40 to 60%. […] Then, the ratio (%) of dead and affected mites was calculated according to the following formula. Acequinocyl and fluacrypyrim were used as control drugs. The ratio (%) of dead and affected mites={(the number of dead mites+the number of affected mites)/(the number of survived mites+the number of affected mites+the number of dead mites)}×100

Assay [2] shares this test system. Description: Test Example 1: controlling effect on red mites, Pasteur pipette treated with acetone solution. Conditions: unfed adult red mites. From the text: The tip of a Pasteur pipette was sealed with Parafilm, and an acetone solution (liquid agent) of each of the samples shown in Table 2 below diluted to a predetermined concentration was poured into the pipette through an upper portion thereof. One minute later, the Parafilm at the tip was detached, and the liquid agent was discharged. After the pipette was air dried, absorbent cotton was inserted to an upper end of the pipette, and 20 unfed adult red mites (Dermanyssus gallinae) were released into the pipette. After the tip was sealed with Hemato-Seal, the pipette was stored in the dark in an incubator at a temperature of 27 to 28° C. and a humidity of 50 to 60%. After 24, 48, and 72 hours had passed since the treatment, the mites were observed under a stereomicroscope to determine whether the mites were dead or alive and whether the mites were affected. Then, the ratio (%) of dead and affected mites was calculated according to the following formula. Spinosad, trichlorfon, and permethrin were used as control drugs. The ratio (%) of dead and affected mites={(the number of dead mites+the number of affected mites)/(the number of survived mites+the number of affected mites+the number of dead mites)}×100

Assay [3] deals with northern fowl mites (Ornithonyssus sylviarum). Put plainly: Test Example 3: controlling effect on northern fowl mites, Pasteur pipette treated with acetone solution. Conditions: fed adult northern fowl mites. The text has this:
The tip of a Pasteur pipette was sealed with Parafilm, and an acetone solution (liquid agent) of each of the samples shown in Table 4 below diluted to a predetermined concentration was poured into the pipette through an upper portion thereof. One minute later, the Parafilm at the tip was detached, and the liquid agent was discharged. After the pipette was air dried, absorbent cotton was inserted to an upper end of the pipette, and 10 fed adult northern fowl mites (Ornithonyssus sylviarum) were released into the pipette. After the tip was sealed with Hemato-Seal, the pipette was stored in the dark in an incubator at 25° C. and at a humidity of 80%. After 2 and 24 hours had passed since the treatment, the mites were observed under a stereomicroscope to determine whether the mites were dead or alive and whether the mites were affected. Then, the ratio (%) of dead and affected mites was calculated. The ratio (%) of dead and affected mites={(the number of dead mites+the number of affected mites)/(the number of survived mites+the number of affected mites+the number of dead mites)}×100

`C[C@@]1(c2ccc(Oc3ccccc3)cc2)OC(=O)N(Nc2ccccc2)C1=O` (racemic) [Famoxadone]: the pest or weed control at 5000 ppm in assay [1] came to 81.7%.

With `CCCCCCCCCCCCC1=C(OC(C)=O)C(=O)c2ccccc2C1=O` [Acequinocyl], in assay [1], the pest or weed control at 5000 ppm amounted to 93.3%.

Regarding `Cc1c(Br)c2ccc(F)cc2n1S(=O)(=O)c1ncn(S(=O)(=O)N(C)C)n1` [Amisulbrom], the “Ratio of dead and affected mites” value in assay [1] turned out to be 92.9%.

For `CO/C=C(/C(=O)OC)c1ccccc1Oc1cc(Oc2ccccc2C#N)ncn1` [Azoxystrobin], the “Ratio of dead and affected mites” value in assay [1] came out at 55.2%.

Regarding `O=C(Nc1ccccc1-c1ccc(Cl)cc1)c1cccnc1Cl` [Boscalid], in assay [1], the pest or weed control at 5000 ppm is 44.5%.

For the compound `CC1=C(C(=O)Nc2ccccc2)SCCO1` [Carboxin], the pest or weed control at 5000 ppm in assay [1] came to 42.6%.

Consider `CC(=O)Oc1c(C)c(C)nc2c(F)cc(C(C)(C)C)cc12` [Compound A], for which the “Ratio of dead and affected mites” value in assay [2] (200 ppm, 24 hours later) is on record as 7%; in assay [2] (200 ppm, 48 hours later), 81%; in assay [2] (200 ppm, 72 hours later), 98%; in assay [2] (1000 ppm, 24 hours later) it was 100%; in assay [2] (1000 ppm, 48 hours later) it was 100%; in assay [2] (1000 ppm, 72 hours later) it was 100%. Also, the “Ratio of dead and affected mites” value in assay [3] (50 ppm, 2 hours later) is 13%; in assay [3] (50 ppm, 24 hours later) it was 92%; in assay [3] (200 ppm, 2 hours later), 53%; in assay [3] (200 ppm, 24 hours later) it was 100%; in assay [3] (1000 ppm, 2 hours later) it was 100%; in assay [3] (1000 ppm, 24 hours later), 100%.

On to `CC(=O)Oc1c(C)c(C)nc2c(C)cc(C(C)(C)C)cc12` [Compound B], for which the “Ratio of dead and affected mites” value in assay [2] (100 ppm, 24 hours later) is 100%; in assay [2] (100 ppm, 48 hours later) it was 100%.

Regarding `CC(=O)Oc1c(C)c(C)nc2c(C)cc(Br)cc12` [Compound C], the “Ratio of dead and affected mites” value in assay [2] (100 ppm, 24 hours later) worked out at 91%; in assay [2] (100 ppm, 48 hours later) it was 95%.

As for `CC(=O)Oc1c(C)c(C)nc2c(C)cc(F)cc12` [Compound D], the “Ratio of dead and affected mites” value in assay [2] (100 ppm, 24 hours later) is 100%; in assay [2] (100 ppm, 48 hours later), 100%.

In the case of `COC(=O)Oc1c(C)c(C)nc2ccc(F)cc12` [Compound F], the “Ratio of dead and affected mites” value in assay [2] (50 ppm, 24 hours later) turned out to be 55%.

For `Cc1ccc(-c2c(Cl)nc(C#N)n2S(=O)(=O)N(C)C)cc1` [Cyazofamid], the pest or weed control at 5000 ppm in assay [1] was found to be 23.2%.

Take `CCC(Nc1ncnc(C)c1Cl)c1ccc(OC(F)F)cc1` (stereo not shown) [Diflumetorim]: in assay [1], the pest or weed control at 5000 ppm is 100%.

Turning to `Cc1nn(C)c(Oc2ccccc2)c1C=NOCc1ccc(C(=O)OC(C)(C)C)cc1` [Fenpyroximate], in assay [1], the pest or weed control at 5000 ppm was 100%.

As for `C/C(=N/Nc1nc(C)cc(C)n1)c1ccccc1C` [Ferimzone], the pest or weed control at 5000 ppm in assay [1] worked out at 53.5%.

With `CO/C=C(/C(=O)OC)c1ccccc1COc1cc(C(F)(F)F)nc(OC(C)C)n1` [Fluacrypyrim], the pest or weed control at 5000 ppm in assay [1] is 19.3%.

Regarding `O=[N+]([O-])c1cc(C(F)(F)F)c(Cl)c([N+](=O)[O-])c1Nc1ncc(C(F)(F)F)cc1Cl` [Fluazinam], the pest or weed control at 5000 ppm in assay [1] was determined as 82.5%.

Take `CC1(C)C(C=C(Cl)c2ccc(Cl)cc2)C1C(=O)OC(C#N)c1ccc(F)c(Oc2ccccc2)c1` (stereo not shown) [Flumethrin]: the “Ratio of dead and affected mites” value in assay [3] (5 ppm, 24 hours later) came out at 67%; in assay [3] (20 ppm, 24 hours later), 83%; in assay [3] (50 ppm, 2 hours later), 100%; in assay [3] (50 ppm, 24 hours later), 100%.

As for `O=C(NCCc1ncc(C(F)(F)F)cc1Cl)c1ccccc1C(F)(F)F` [Fluopyram], in assay [1], the pest or weed control at 5000 ppm was 50.5%.

As to `CO/N=C(/C1=NOCCO1)c1ccccc1Oc1ncnc(Oc2ccccc2Cl)c1F` [Fluoxastrobin], the pest or weed control at 5000 ppm in assay [1] stood at 66.5%.

Turning to `CC(C)Oc1cccc(NC(=O)c2ccccc2C(F)(F)F)c1` [Flutolanil], the pest or weed control at 5000 ppm in assay [1] was found to be 39.5%.

Take `Cn1cc(C(=O)Nc2ccccc2-c2cc(F)c(F)c(F)c2)c(C(F)F)n1` [Fluxapyroxad]: the “Ratio of dead and affected mites” value in assay [1] is on record as 61.3%.

With `Cc1nn(C)c(Cl)c1C(=O)Nc1cccc2c1C(C)OC2(C)C` (stereo not shown) [Furametpyr], the “Ratio of dead and affected mites” value in assay [1] is listed as 56.1%.

For the compound `Cc1cc(OC(C)C)ccc1C(=O)C(C)(C)NC(=O)c1sccc1C` [Isofetamid], in assay [1], the “Ratio of dead and affected mites” value stood at 17.4%.

`CO/N=C(/C(=O)OC)c1ccccc1COc1ccccc1C` [Kresoxim-Methyl]: the pest or weed control at 5000 ppm in assay [1] worked out at 52.8%.

On to `Cc1ccccc1C(=O)Nc1cccc(OC(C)C)c1` [Mepronil], for which the pest or weed control at 5000 ppm in assay [1] was found to be 52.1%.

Consider `CNC(=O)/C(=N/OC)c1ccccc1Oc1ccccc1` [Metominostrobin], for which the pest or weed control at 5000 ppm in assay [1] was found to be 50%.

On to `CNC(=O)/C(=N/OC)c1ccccc1CO/N=C(C)/C(=N/OC)C(/C)=N/OC` [Orysastrobin], for which the “Ratio of dead and affected mites” value in assay [1] was 82.6%.

As to `Cc1nn(C)c(F)c1C(=O)Nc1ccccc1C(C)CC(C)C` (stereo not shown) [Penflufen], in assay [1], the “Ratio of dead and affected mites” value worked out at 20.5%.

Turning to `CC(C)CC(C)c1sccc1NC(=O)c1cn(C)nc1C(F)(F)F` (stereo not shown) [Penthiopyrad], in assay [1], the pest or weed control at 5000 ppm was determined as 35%.

`CC1(C)C(C=C(Cl)Cl)C1C(=O)OCc1cccc(Oc2ccccc2)c1` (stereo not shown) [Permethrin]: in assay [2] (100 ppm, 48 hours later), the “Ratio of dead and affected mites” value is given as 6%.

In the case of `CO/C=C(/C(=O)OC)c1ccccc1COc1cccc(C(F)(F)F)n1` [Picoxystrobin], the “Ratio of dead and affected mites” value in assay [1] is 80.5%.

For `COC(=O)N(OC)c1ccccc1COc1ccn(-c2ccc(Cl)cc2)n1` [Pyraclostrobin], the pest or weed control at 5000 ppm in assay [1] stood at 77.3%.

Take `COC(=O)NCc1cc(/C(C)=N/OCc2cccc(C)n2)ccc1Cl` [Pyribencarb]: in assay [1], the pest or weed control at 5000 ppm is 31.1%.

As for `Cc1nc(C(F)(F)F)c(C(=O)Nc2c(Br)cc(OC(F)(F)F)cc2Br)s1` [Thifluzamide], the pest or weed control at 5000 ppm in assay [1] came to 63.2%.

Regarding `COP(=O)(OC)C(O)C(Cl)(Cl)Cl` (stereo not shown) [Trichlorfon], in assay [2] (5000 ppm, 48 hours later), the “Ratio of dead and affected mites” value amounted to 84%.

With `CON=C(C(=O)OC)c1ccccc1CON=C(C)c1cccc(C(F)(F)F)c1` [Trifloxystrobin], in assay [1], the pest or weed control at 5000 ppm stood at 75.7%.

Take Spinosad: the “Ratio of dead and affected mites” value in assay [2] (200 ppm, 24 hours later) was 33%; in assay [2] (200 ppm, 48 hours later), 69%; in assay [2] (200 ppm, 72 hours later), 72%; in assay [2] (1000 ppm, 24 hours later), 32%; in assay [2] (1000 ppm, 48 hours later) it was 82%; in assay [2] (1000 ppm, 72 hours later), 95%. In addition, the “Ratio of dead and affected mites” value in assay [3] (50 ppm, 2 hours later) turned out to be 18%; in assay [3] (50 ppm, 24 hours later), 80%; in assay [3] (200 ppm, 2 hours later) it was 3%; in assay [3] (200 ppm, 24 hours later), 94%.
